Test results: article PMC8371461 (Frontiers in Pharmacology, 2021)

Legend:
IKK-beta = molecular target: T1, IKK-beta (Homo sapiens, UniProt O14920); experiment: kinome scan; assay type: binding; details: 10 µM
T1 construct: purchased DiscoverX (KINOMEscan)

SLK = molecular target: T2, SLK (Homo sapiens, UniProt Q9H2G2); experiment: kinome scan; assay type: binding; details: 10 µM
T2 construct: purchased DiscoverX (KINOMEscan)

[1] = molecular target: T3, ABL1(Q252H)-phosphorylated (Homo sapiens, UniProt P00519, Q252H); experiment: kinome scan; assay type: binding; details: 10 µM
T3 construct: purchased DiscoverX (KINOMEscan)

DRAK1 = molecular target: T4, DRAK1 (Homo sapiens, UniProt Q9UEE5); experiment: kinome scan; assay type: binding; details: 10 µM
T4 construct: purchased DiscoverX (KINOMEscan)

CSF1R = molecular target: T5, CSF1R (Homo sapiens, UniProt P07333); experiment: kinome scan; assay type: binding; details: 10 µM
T5 construct: purchased DiscoverX (KINOMEscan)

PIK3CA(I800L) = molecular target: T6, PIK3CA(I800L) (Homo sapiens, UniProt P42336, I800L); experiment: kinome scan; assay type: binding; details: 10 µM
T6 construct: purchased DiscoverX (KINOMEscan)

DMPK = molecular target: T7, DMPK (Homo sapiens, UniProt Q09013); experiment: kinome scan; assay type: binding; details: 10 µM
T7 construct: purchased DiscoverX (KINOMEscan)

FLT3(N841I) = molecular target: T8, FLT3(N841I) (Homo sapiens, UniProt P36888, N841I); experiment: kinome scan; assay type: binding; details: 10 µM
T8 construct: purchased DiscoverX (KINOMEscan)

NEK2 = molecular target: T9, NEK2 (Homo sapiens, UniProt P51955); experiment: kinome scan; assay type: binding; details: 10 µM
T9 construct: purchased DiscoverX (KINOMEscan)

TGFBR1 = molecular target: T10, TGFBR1 (Homo sapiens, UniProt P36897); experiment: kinome scan; assay type: binding; details: 10 µM
T10 construct: purchased DiscoverX (KINOMEscan)

AMPK-alpha2 = molecular target: T11, AMPK-alpha2 (Homo sapiens, UniProt P54646); experiment: kinome scan; assay type: binding; details: 10 µM
T11 construct: purchased DiscoverX (KINOMEscan)

LKB1 = molecular target: T12, LKB1 (Homo sapiens, UniProt Q15831); experiment: kinome scan; assay type: binding; details: 10 µM
T12 construct: purchased DiscoverX (KINOMEscan)

MAP4K5 = molecular target: T13, MAP4K5 (Homo sapiens, UniProt Q9Y4K4); experiment: kinome scan; assay type: binding; details: 10 µM
T13 construct: purchased DiscoverX (KINOMEscan)

TTK = molecular target: T14, TTK (Homo sapiens, UniProt P33981); experiment: kinome scan; assay type: binding; details: 10 µM
T14 construct: purchased DiscoverX (KINOMEscan)

DYRK1A = molecular target: T15, DYRK1A (Homo sapiens, UniProt Q13627); experiment: kinome scan; assay type: binding; details: 10 µM
T15 construct: purchased DiscoverX (KINOMEscan)

HIPK4 = molecular target: T16, HIPK4 (Homo sapiens, UniProt Q8NE63); experiment: kinome scan; assay type: binding; details: 10 µM
T16 construct: purchased DiscoverX (KINOMEscan)

GSK3B = molecular target: T17, GSK3B (Homo sapiens, UniProt P49841); experiment: kinome scan; assay type: binding; details: 10 µM
T17 construct: purchased DiscoverX (KINOMEscan)

AURKB = molecular target: T18, AURKB (Homo sapiens, UniProt Q96GD4); experiment: kinome scan; assay type: binding; details: 10 µM
T18 construct: purchased DiscoverX (KINOMEscan)

ASK1 = molecular target: T19, ASK1 (Homo sapiens, UniProt Q99683); experiment: kinome scan; assay type: binding; details: 10 µM
T19 construct: purchased DiscoverX (KINOMEscan)

PKAC-beta = molecular target: T20, PKAC-beta (Homo sapiens, UniProt P22694); experiment: kinome scan; assay type: binding; details: 10 µM
T20 construct: purchased DiscoverX (KINOMEscan)

CAMK2D = molecular target: T21, CAMK2D (Homo sapiens, UniProt Q13557); experiment: kinome scan; assay type: binding; details: 10 µM
T21 construct: purchased DiscoverX (KINOMEscan)

MEK6 = molecular target: T22, MEK6 (Homo sapiens, UniProt P52564); experiment: kinome scan; assay type: binding; details: 10 µM
T22 construct: purchased DiscoverX (KINOMEscan)

PDPK1 = molecular target: T23, PDPK1 (Homo sapiens, UniProt O15530); experiment: kinome scan; assay type: binding; details: 10 µM
T23 construct: purchased DiscoverX (KINOMEscan)

MAST1 = molecular target: T24, MAST1 (Homo sapiens, UniProt Q9Y2H9); experiment: kinome scan; assay type: binding; details: 10 µM
T24 construct: purchased DiscoverX (KINOMEscan)

RAF1 = molecular target: T25, RAF1 (Homo sapiens, UniProt P04049); experiment: kinome scan; assay type: binding; details: 10 µM
T25 construct: purchased DiscoverX (KINOMEscan)

MINK = molecular target: T26, MINK (Homo sapiens, UniProt Q8N4C8); experiment: kinome scan; assay type: binding; details: 10 µM
T26 construct: purchased DiscoverX (KINOMEscan)

[2] = system: Estrogen receptor alpha signaling; set-up: method as in CHEMBL1794542; details: reported activity, data mining; ref CHEMBL1794542; cited from earlier work
PLK4 = molecular target: T27, PLK4 (Homo sapiens, UniProt O00444); experiment: kinome scan; assay type: binding; details: 10 µM
T27 construct: purchased DiscoverX (KINOMEscan)

BRK = molecular target: T28, BRK (Homo sapiens, UniProt Q13882); experiment: kinome scan; assay type: binding; details: 10 µM
T28 construct: purchased DiscoverX (KINOMEscan)

DCAMKL3 = molecular target: T29, DCAMKL3 (Homo sapiens, UniProt Q9C098); experiment: kinome scan; assay type: binding; details: 10 µM
T29 construct: purchased DiscoverX (KINOMEscan)

FYN = molecular target: T30, FYN (Homo sapiens, UniProt P06241); experiment: kinome scan; assay type: binding; details: 10 µM
T30 construct: purchased DiscoverX (KINOMEscan)

MET(M1250T) = molecular target: T31, MET(M1250T) (Homo sapiens, UniProt P08581, M1250T); experiment: kinome scan; assay type: binding; details: 10 µM
T31 construct: purchased DiscoverX (KINOMEscan)

CDC2L2 = molecular target: T32, CDC2L2 (Homo sapiens, UniProt Q9UQ88); experiment: kinome scan; assay type: binding; details: 10 µM
T32 construct: purchased DiscoverX (KINOMEscan)

EGFR = molecular target: T33, EGFR (Homo sapiens, UniProt P00533); experiment: kinome scan; assay type: binding; details: 10 µM
T33 construct: purchased DiscoverX (KINOMEscan)

ERBB2 = molecular target: T34, ERBB2 (Homo sapiens, UniProt P04626); experiment: kinome scan; assay type: binding; details: 10 µM
T34 construct: purchased DiscoverX (KINOMEscan)

HIPK3 = molecular target: T35, HIPK3 (Homo sapiens, UniProt Q9H422); experiment: kinome scan; assay type: binding; details: 10 µM
T35 construct: purchased DiscoverX (KINOMEscan)

[3] = molecular target: T36, ABL1(H396P)-phosphorylated (Homo sapiens, UniProt P00519, H396P); experiment: kinome scan; assay type: binding; details: 10 µM
T36 construct: purchased DiscoverX (KINOMEscan)

HPK1 = molecular target: T37, HPK1 (Homo sapiens, UniProt Q92918); experiment: kinome scan; assay type: binding; details: 10 µM
T37 construct: purchased DiscoverX (KINOMEscan)

T24 sequence (Q9Y2H9 whole entry): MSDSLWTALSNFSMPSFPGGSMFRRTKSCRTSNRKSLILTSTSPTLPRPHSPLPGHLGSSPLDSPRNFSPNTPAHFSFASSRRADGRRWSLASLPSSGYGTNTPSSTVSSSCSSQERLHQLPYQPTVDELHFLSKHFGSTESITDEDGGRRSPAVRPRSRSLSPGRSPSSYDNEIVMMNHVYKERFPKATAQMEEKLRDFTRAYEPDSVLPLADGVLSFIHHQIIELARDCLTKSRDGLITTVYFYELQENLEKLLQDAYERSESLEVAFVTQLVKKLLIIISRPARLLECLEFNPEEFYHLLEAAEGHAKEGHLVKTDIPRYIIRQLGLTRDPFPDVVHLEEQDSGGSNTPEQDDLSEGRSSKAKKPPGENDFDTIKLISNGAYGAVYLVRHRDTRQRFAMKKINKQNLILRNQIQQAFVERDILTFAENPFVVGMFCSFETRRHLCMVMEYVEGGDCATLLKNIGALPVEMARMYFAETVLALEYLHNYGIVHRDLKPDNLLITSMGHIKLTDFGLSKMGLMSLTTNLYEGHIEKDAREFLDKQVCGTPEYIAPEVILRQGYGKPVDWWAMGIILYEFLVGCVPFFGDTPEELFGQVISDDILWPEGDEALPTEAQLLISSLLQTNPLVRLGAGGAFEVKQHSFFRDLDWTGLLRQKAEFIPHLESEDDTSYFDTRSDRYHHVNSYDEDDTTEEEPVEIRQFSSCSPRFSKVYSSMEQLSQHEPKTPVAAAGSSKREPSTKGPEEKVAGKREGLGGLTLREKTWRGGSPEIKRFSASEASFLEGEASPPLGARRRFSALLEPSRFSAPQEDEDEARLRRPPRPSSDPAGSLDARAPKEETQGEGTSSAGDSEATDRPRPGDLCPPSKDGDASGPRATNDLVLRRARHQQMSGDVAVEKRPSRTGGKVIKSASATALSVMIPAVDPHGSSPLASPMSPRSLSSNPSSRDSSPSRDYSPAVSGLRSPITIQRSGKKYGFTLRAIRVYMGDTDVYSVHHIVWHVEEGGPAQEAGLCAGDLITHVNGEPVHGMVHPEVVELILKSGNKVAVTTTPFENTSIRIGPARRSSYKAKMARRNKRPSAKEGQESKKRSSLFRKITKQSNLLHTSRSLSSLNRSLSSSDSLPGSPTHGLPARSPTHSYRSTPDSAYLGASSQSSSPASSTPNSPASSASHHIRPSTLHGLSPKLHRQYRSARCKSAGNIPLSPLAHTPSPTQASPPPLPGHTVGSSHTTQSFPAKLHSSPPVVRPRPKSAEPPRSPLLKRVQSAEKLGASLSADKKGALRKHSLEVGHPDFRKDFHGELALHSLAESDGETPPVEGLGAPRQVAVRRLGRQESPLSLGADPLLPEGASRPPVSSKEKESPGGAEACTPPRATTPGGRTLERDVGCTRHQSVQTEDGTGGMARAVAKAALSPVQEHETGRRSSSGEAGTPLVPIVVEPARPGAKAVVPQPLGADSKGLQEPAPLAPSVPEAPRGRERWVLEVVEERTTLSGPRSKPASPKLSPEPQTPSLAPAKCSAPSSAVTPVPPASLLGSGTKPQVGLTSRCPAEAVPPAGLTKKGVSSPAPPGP
T19 sequence (Q99683 whole entry): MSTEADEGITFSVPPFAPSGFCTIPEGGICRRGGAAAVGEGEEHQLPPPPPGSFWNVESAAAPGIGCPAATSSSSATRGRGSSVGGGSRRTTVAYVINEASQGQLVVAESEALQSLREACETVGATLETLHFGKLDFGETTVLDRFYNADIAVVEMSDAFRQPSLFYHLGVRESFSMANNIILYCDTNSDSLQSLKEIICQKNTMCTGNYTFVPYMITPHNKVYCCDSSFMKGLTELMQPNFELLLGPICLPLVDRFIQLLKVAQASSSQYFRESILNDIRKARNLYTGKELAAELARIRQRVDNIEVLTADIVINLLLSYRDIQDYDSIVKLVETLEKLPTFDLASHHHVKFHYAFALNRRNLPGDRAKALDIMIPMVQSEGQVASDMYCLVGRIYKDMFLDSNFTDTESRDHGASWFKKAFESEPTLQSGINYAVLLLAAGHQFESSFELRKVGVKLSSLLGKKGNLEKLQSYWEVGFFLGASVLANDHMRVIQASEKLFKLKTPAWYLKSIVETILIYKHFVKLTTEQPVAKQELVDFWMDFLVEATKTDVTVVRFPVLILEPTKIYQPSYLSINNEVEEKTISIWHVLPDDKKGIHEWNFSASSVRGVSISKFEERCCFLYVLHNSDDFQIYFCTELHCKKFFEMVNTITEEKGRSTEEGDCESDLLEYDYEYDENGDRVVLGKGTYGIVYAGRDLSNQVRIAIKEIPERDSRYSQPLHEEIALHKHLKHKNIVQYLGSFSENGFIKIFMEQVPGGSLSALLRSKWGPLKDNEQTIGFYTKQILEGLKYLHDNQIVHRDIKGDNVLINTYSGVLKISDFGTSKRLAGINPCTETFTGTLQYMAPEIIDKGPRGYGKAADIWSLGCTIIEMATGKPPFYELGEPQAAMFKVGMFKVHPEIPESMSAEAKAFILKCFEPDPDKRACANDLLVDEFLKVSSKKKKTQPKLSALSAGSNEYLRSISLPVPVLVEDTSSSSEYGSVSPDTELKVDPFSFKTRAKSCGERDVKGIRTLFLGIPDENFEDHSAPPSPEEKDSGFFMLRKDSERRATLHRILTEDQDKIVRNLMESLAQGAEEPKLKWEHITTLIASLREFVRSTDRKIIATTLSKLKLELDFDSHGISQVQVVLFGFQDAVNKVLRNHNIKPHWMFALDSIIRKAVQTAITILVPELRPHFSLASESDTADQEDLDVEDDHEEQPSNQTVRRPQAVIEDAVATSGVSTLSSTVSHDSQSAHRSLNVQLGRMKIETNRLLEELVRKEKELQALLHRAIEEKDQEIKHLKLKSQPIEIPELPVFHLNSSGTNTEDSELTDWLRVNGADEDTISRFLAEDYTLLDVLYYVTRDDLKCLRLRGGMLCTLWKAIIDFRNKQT
T9 sequence (P51955 whole entry): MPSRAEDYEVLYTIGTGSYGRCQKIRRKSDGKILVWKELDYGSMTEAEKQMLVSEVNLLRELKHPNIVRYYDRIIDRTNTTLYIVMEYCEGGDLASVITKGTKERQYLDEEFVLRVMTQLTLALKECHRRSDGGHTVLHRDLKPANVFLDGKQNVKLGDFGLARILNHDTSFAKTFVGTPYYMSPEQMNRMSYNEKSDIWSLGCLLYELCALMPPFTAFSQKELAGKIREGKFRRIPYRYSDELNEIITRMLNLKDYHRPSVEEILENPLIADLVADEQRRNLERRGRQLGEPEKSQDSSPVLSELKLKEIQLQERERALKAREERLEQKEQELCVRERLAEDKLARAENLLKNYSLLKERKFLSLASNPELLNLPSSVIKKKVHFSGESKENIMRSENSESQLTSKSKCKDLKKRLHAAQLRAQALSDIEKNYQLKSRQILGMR
T30 sequence (P06241 whole entry): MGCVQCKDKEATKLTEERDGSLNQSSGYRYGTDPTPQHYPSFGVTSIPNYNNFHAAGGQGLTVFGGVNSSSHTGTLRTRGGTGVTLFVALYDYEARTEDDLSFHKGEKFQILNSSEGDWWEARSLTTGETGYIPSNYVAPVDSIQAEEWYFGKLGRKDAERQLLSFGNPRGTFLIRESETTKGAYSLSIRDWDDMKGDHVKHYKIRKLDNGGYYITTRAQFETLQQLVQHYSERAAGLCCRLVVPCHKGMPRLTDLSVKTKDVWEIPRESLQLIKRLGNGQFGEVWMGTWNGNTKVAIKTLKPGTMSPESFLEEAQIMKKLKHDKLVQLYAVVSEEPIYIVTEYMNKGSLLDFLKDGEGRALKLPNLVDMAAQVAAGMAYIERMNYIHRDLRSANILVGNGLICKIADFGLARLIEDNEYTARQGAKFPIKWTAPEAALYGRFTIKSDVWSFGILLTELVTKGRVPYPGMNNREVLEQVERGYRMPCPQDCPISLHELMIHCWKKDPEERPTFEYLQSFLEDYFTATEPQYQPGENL
T29 sequence (Q9C098 whole entry): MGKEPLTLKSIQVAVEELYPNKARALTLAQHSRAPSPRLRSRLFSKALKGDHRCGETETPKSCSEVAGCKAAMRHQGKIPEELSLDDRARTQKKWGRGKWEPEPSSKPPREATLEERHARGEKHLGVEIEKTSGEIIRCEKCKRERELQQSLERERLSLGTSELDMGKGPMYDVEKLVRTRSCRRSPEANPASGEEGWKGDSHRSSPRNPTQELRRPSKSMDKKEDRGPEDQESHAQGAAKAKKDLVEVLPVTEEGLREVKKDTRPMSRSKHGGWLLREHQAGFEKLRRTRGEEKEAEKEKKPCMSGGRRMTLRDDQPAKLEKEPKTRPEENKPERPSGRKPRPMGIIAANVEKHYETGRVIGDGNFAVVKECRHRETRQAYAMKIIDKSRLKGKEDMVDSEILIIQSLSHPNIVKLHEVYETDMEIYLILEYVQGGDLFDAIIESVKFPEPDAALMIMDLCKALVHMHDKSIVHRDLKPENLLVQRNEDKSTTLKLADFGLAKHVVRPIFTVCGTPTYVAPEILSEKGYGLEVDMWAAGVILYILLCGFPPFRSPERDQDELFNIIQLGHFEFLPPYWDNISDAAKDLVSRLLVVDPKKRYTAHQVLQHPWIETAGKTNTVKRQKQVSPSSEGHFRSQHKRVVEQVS
T22 sequence (P52564 whole entry): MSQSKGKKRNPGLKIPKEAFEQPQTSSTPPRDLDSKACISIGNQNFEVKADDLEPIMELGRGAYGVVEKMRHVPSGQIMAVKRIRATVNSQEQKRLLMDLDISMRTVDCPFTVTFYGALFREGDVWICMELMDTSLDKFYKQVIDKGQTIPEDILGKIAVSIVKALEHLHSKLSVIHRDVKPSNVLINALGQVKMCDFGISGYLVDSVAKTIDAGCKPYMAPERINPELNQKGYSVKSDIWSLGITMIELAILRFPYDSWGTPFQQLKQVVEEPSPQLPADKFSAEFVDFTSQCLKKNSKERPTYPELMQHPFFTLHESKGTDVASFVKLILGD

Nc1ccc(N=Nc2ccccc2)c(N)n1 [phenazopyridine, 2,6-diamino-3-(phenylazo)pyridine]
kinase inhibition (IKK-beta): 89
kinase inhibition (SLK): 100
kinase inhibition [1]: 100
kinase inhibition (DRAK1): 45
kinase inhibition (CSF1R): 81
kinase inhibition (PIK3CA(I800L)): 88
kinase inhibition (DMPK): 89
remaining binding (% of control) (FLT3(N841I)): 46
kinase inhibition (NEK2): 81
kinase inhibition (TGFBR1): 100
kinase inhibition (AMPK-alpha2): 84
kinase inhibition (LKB1): 88
kinase inhibition (MAP4K5): 100
kinase inhibition (TTK): 88
remaining binding (% of control) (DYRK1A): 73
kinase inhibition (HIPK4): 72
kinase inhibition (GSK3B): 100
kinase inhibition (AURKB): 72
kinase inhibition (ASK1): 100
kinase inhibition (PKAC-beta): 95
kinase inhibition (CAMK2D): 88
kinase inhibition (MEK6): 95
kinase inhibition (PDPK1): 100
kinase inhibition (MAST1): 85
kinase inhibition (RAF1): 100
kinase inhibition (MINK): 90
Concentration [2]: 3.1 µM
kinase inhibition (PLK4): 89
kinase inhibition (BRK): 100
kinase inhibition (DCAMKL3): 92
remaining binding (% of control) (FYN): 100
kinase inhibition (MET(M1250T)): 83
kinase inhibition (CDC2L2): 84
remaining binding (% of control) (EGFR): 93
kinase inhibition (ERBB2): 64
kinase inhibition (HIPK3): 98
kinase inhibition [3]: 77
kinase inhibition (HPK1): 67
